Test results: patent publication US20250127906A1, “SMALL-MOLECULE DEGRADERS OF CDK8 AND CDK19” (University of South Carolina, priority 2021, published 2025)

These molecules were tested against CDK8 (Homo sapiens, UniProt P49336) (assay: CDK8 degradation in HEK-293 cells (Western blot, normalized by GAPDH)). Conditions: HEK-293; HP8580 200 nM and 1 μM, pomalidomide 5 μM, Senexin C 5 μM.
Format: cell-based
Parameters: endogenous in cells; host or cells: HEK-293
Method: Table 1 presents the structures of 35 different chimeras that have been synthesized, together with their effects (at 1 μM or 0.3 μM concentrations) on CDK8 degradation in HEK-293 cells. The synthesis schemes of all the compounds are described below. CDK8 degradation was measured by Western blot analysis of RIPA lysates of HEK-293cells treated with or without the test compound for 24 hours, using antibodies against CDK8 (Santa Cruz sc-1521) and housekeeping protein GAPDH (Santa Cruz sc-32233) (loading control) Protein bands on immunoblotted PVDF membranes were visualized with Western Lighting Plus ECL detection reagent (Perkin Elmer, Waltham, MA, USA) using ChemiDoc Touch™ (Bio-Rad). Image processing and densitometry analysis were performed using ImageLab software (Bio-Rad) to quantify the CDK8 protein levels (normalized by GAPDH) and evaluate the effects of compound treatment.
FIGS. 2F and 2G show the effects of different concentrations of potent Senexin C- and BI-1347-based PROTACs on CDK8 and CDK19 degradation in HEK-293cells. Based on these assays, we calculated DC50 values that correspond to PROTAC concentrations inducing degradation of CDK8 and CDK19 to the half of protein level in untreated cells. The corresponding CDK8 DC50 values were 46 nM for IA7843, 6.6 nM for IA7882 and 2.8 nM for IA7886, and CDK19 DC50 values were 1 μM for IA7843, 25 nM for IA7882 and 10 nM for IA7886.

Sequence of CDK8 (P49336 whole entry): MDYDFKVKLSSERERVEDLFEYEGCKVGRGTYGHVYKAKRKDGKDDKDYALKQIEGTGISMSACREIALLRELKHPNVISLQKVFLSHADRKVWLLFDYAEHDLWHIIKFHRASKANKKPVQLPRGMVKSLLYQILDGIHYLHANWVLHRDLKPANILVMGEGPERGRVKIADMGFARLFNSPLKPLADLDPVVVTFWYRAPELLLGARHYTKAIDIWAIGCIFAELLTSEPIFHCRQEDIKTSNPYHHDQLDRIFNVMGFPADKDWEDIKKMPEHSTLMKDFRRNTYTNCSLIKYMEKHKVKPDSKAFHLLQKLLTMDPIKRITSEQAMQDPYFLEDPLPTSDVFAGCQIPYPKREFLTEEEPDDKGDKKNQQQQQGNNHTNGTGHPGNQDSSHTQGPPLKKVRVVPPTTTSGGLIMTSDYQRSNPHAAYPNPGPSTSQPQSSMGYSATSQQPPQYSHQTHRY
Sequence of CDK8 (P24863 whole entry partner): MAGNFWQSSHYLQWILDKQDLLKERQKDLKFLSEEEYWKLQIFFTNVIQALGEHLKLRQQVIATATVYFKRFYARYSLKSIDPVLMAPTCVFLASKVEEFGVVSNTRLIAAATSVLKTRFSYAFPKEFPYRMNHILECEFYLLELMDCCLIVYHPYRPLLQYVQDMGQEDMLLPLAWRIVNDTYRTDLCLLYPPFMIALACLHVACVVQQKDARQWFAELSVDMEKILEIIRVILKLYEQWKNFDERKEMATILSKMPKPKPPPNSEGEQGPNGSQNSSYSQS

| SMILES | induction of CDK8 degradation by single agents |
| --- | --- |
| Nc1cccc2c1C(=O)N(C1CCC(=O)NC1=O)C2=O (centres unmarked) [pomalidomide, reference compound] | but not pomalidomide or Senexin C induced CDK8 degradation |
| N#Cc1ccc2nccc(NCCc3ccc4cc(C(=O)N5CCN(C(=O)CCOCCOCCOCCOCCNc6cccc7c6C(=O)N(C6CCC(=O)NC6=O)C7=O)CC5)ccc4c3)c2c1 (centres unmarked) [HP8580, 4-[2-[6-[4-[3-[2-[2-[2-[2-[[2-(2,6-dioxo-3-piperidyl)-1,3-dioxo-isoindolin-4-yl]amino]ethoxy]ethoxy]ethoxy]ethoxy]propanoyl]piperazine-1-carbonyl]-2-naphthyl]ethylamino]quinoline-6-carbonitrile] | induced CDK8 degradation |

Same assay, conditions: HEK-293; with MG132 5 μM, pomalidomide 5 μM or Senexin C 5 μM

| SMILES | effect of co-treatment on HP8580-mediated CDK8 degradation |
| --- | --- |
| N#Cc1ccc2nccc(NCCc3ccc4cc(C(=O)N5CCN(C(=O)CCOCCOCCOCCOCCNc6cccc7c6C(=O)N(C6CCC(=O)NC6=O)C7=O)CC5)ccc4c3)c2c1 (centres unmarked) [HP8580, 4-[2-[6-[4-[3-[2-[2-[2-[2-[[2-(2,6-dioxo-3-piperidyl)-1,3-dioxo-isoindolin-4-yl]amino]ethoxy]ethoxy]ethoxy]ethoxy]propanoyl]piperazine-1-carbonyl]-2-naphthyl]ethylamino]quinoline-6-carbonitrile] | reversed by proteasome inhibition with MG132 as well as by competition with pomalidomide or Senexin C |

Same assay, conditions: HEK-293 cells, 24 hours, tested at 1 μM

| % CDK8 remaining [%] | SMILES |
| --- | --- |
| 29 | N#Cc1ccc2nccc(NCCc3ccc4cc(C(=O)N5CCN(C(=O)CCOCCOCCOCCOCCOCCNc6cccc7c6C(=O)N(C6CCC(=O)NC6=O)C7=O)CC5)ccc4c3)c2c1 (centres unmarked) [IA7812, 4-[2-[6-[4-[3-[2-[2-[2-[2-[2-[[2-(2,6-dioxo-3-piperidyl)-1,3-dioxo-isoindolin-4-yl]amino]ethoxy]ethoxy]ethoxy]ethoxy]ethoxy]propanoyl]piperazine-1-carbonyl]-2-naphthyl]ethylamino]quinoline-6-carbonitrile] |
| 27 | N#Cc1ccc2nccc(NCCc3ccc4cc(C(=O)N5CCN(C(=O)CCOCCOCCNc6cccc7c6C(=O)N(C6CCC(=O)NC6=O)C7=O)CC5)ccc4c3)c2c1 (centres unmarked) [HV5958, 4-[2-[6-[4-[3-[2-[2-[[2-(2,6-dioxo-3-piperidyl)-1,3-dioxo-isoindolin-4-yl]amino]ethoxy]ethoxy]propanoyl]piperazine-1-carbonyl]-2-naphthyl]ethylamino]quinoline-6-carbonitrile] |
| 65 | N#Cc1ccc2nccc(NCCc3ccc4cc(C(=O)N5CCN(C(=O)CCOCCOCCOCCNC(=O)CCNc6cccc7c6C(=O)N(C6CCC(=O)NC6=O)C7=O)CC5)ccc4c3)c2c1 (centres unmarked) [IA7830, N-[2-[2-[2-[3-[4-[6-[2-[(6-cyano-4-quinolyl)amino]ethyl]naphthalene-2-carbonyl]piperazin-1-yl]-3-oxo-propoxy]ethoxy]ethoxy]ethyl]-3-[[2-(2,6-dioxo-3-piperidyl)-1,3-dioxo-isoindolin-4-yl]amino]propanamide] |
| 65 | N#Cc1ccc2nccc(NCCc3ccc4cc(C(=O)N5CCN(C(=O)CCNC(=O)CCOCCOCCOCCOCCNc6cccc7c6C(=O)N(C6CCC(=O)NC6=O)C7=O)CC5)ccc4c3)c2c1 (centres unmarked) [IA7822, N-[3-[4-[6-[2-[(6-cyano-4-quinolyl)amino]ethyl]naphthalene-2-carbonyl]piperazin-1-yl]-3-oxo-propyl]-3-[2-[2-[2-[2-[[2-(2,6-dioxo-3-piperidyl)-1,3-dioxo-isoindolin-4-yl]amino]ethoxy]ethoxy]ethoxy]ethoxy]propanamide] |
| 20 | N#Cc1ccc2nccc(NCCc3ccc4cc(C(=O)N5CCN(C(=O)CCOCCOCCOCCOCCNc6cccc7c6C(=O)N(C6CCC(=O)NC6=O)C7=O)CC5)ccc4c3)c2c1 (centres unmarked) [HP8580, 4-[2-[6-[4-[3-[2-[2-[2-[2-[[2-(2,6-dioxo-3-piperidyl)-1,3-dioxo-isoindolin-4-yl]amino]ethoxy]ethoxy]ethoxy]ethoxy]propanoyl]piperazine-1-carbonyl]-2-naphthyl]ethylamino]quinoline-6-carbonitrile] |

The next lines start with the molecule.

| SMILES | % CDK8 remaining [%] |
| --- | --- |
| NC(=O)c1sc2nccc(N3CCCN(c4ccc(C(=O)N5CCN(C(=O)CCOCCOCCOCCOCCNc6cccc7c6C(=O)N(C6CCC(=O)NC6=O)C7=O)CC5)cc4)CC3)c2c1N (centres unmarked) [IA7892, 3-amino-4-[4-[4-[4-[3-[2-[2-[2-[2-[[2-(2,6-dioxo-3-piperidyl)-1,3-dioxo-isoindolin-4-yl]amino]ethoxy]ethoxy]ethoxy]ethoxy]propanoyl]piperazine-1-carbonyl]phenyl]-1,4-diazepan-1-yl]thieno[2,3-b]pyridine-2-carboxamide] | 41 |
| N#Cc1ccc2nccc(NCCc3ccc4cc(C(=O)N5CCN(C(=O)CCCCCCCCCNC(=O)CCCCCNc6cccc7c6C(=O)N(C6CCC(=O)NC6=O)C7=O)CC5)ccc4c3)c2c1 (centres unmarked) [IA7859, N-[10-[4-[6-[2-[(6-cyano-4-quinolyl)amino]ethyl]naphthalene-2-carbonyl]piperazin-1-yl]-10-oxo-decyl]-6-[[2-(2,6-dioxo-3-piperidyl)-1,3-dioxo-isoindolin-4-yl]amino]hexanamide] | 81 |
| N#Cc1ccc2nccc(NCCc3ccc4cc(C(=O)N5CCN(C(=O)CCCCCCCCCCCNC(=O)CCNc6cccc7c6C(=O)N(C6CCC(=O)NC6=O)C7=O)CC5)ccc4c3)c2c1 (centres unmarked) [IA7848, N-[12-[4-[6-[2-[(6-cyano-4-quinolyl)amino]ethyl]naphthalene-2-carbonyl]piperazin-1-yl]-12-oxo-dodecyl]-3-[[2-(2,6-dioxo-3-piperidyl)-1,3-dioxo-isoindolin-4-yl]amino]propanamide] | 31 |
| Cc1ncsc1-c1ccc(CNC(=O)[C@@H]2C[C@@H](O)CN2C(=O)[C@@H](NC(=O)CCCCCCCCC(=O)N2CCN(C(=O)c3ccc4cc(CCNc5ccnc6ccc(C#N)cc56)ccc4c3)CC2)C(C)(C)C)cc1 (racemic) [IA7862, rac-(2S,4R)-4-hydroxy-N-[[4-(4-methylthiazol-5-yl)phenyl]methyl]-1-[rac-(2S)-2-[[10-[4-[6-[2-[(6-cyano-4-quinolyl)amino]ethyl]naphthalene-2-carbonyl]piperazin-1-yl]-10-oxo-decanoyl]amino]-3,3-dimethyl-butanoyl]pyrrolidine-2-carboxamide] | 69 |
| CN1C(=O)CCC(N2C(=O)c3cccc(NCCOCCOCCOCCOCCC(=O)N4CCN(C(=O)c5ccc6cc(CCNc7ccnc8ccc(C#N)cc78)ccc6c5)CC4)c3C2=O)C1=O (centres unmarked) [IA7803, 4-[2-[6-[4-[3-[2-[2-[2-[2-[[2-(1-methyl-2,6-dioxo-3-piperidyl)-1,3-dioxo-isoindolin-4-yl]amino]ethoxy]ethoxy]ethoxy]ethoxy]propanoyl]piperazine-1-carbonyl]-2-naphthyl]ethylamino]quinoline-6-carbonitrile] | 100 |
| N#Cc1ccc2nccc(NCCc3ccc4cc(C(=O)N5CCN(CCCNC(=O)CCOCCOCCOCCOCCNc6cccc7c6C(=O)N(C6CCC(=O)NC6=O)C7=O)CC5)ccc4c3)c2c1 (centres unmarked) [HP8579] | 29 |
| CN(CCCNC(=O)CCOCCOCCOCCOCCOCCOCCNc1cccc2c1C(=O)N(C1CCC(=O)NC1=O)C2=O)C(=O)c1ccc(N2CCCN(c3ccnc4sc(C(N)=O)c(N)c34)CC2)cc1 (centres unmarked) [IA7814, 3-amino-4-[4-[4-[3-[3-[2-[2-[2-[2-[2-[2-[[2-(2,6-dioxo-3-piperidyl)-1,3-dioxo-isoindolin-4-yl]amino]ethoxy]ethoxy]ethoxy]ethoxy]ethoxy]ethoxy]propanoylamino]propyl-methyl-carbamoyl]phenyl]-1,4-diazepan-1-yl]thieno[2,3-b]pyridine-2-carboxamide] | 59 |
| N#Cc1ccc2nccc(NCCc3ccc4cc(C(=O)N5CCN(C(=O)CCCCCCCCCNC(=O)COc6ccc7c(c6)CCCN7C(=O)CCl)CC5)ccc4c3)c2c1 [IA7875, 2-[[1-(2-chloroacetyl)-3,4-dihydro-2H-quinolin-6-yl]oxy]-N-[10-[4-[6-[2-[(6-cyano-4-quinolyl)amino]ethyl]naphthalene-2-carbonyl]piperazin-1-yl]-10-oxo-decyl]acetamide] | 100 |
| N#Cc1ccc2nccc(NCCc3ccc4cc(C(=O)N5CCN(C(=O)CCOCCOCCOCCOCCOCCOCCNc6cccc7c6C(=O)N(C6CCC(=O)NC6=O)C7=O)CC5)ccc4c3)c2c1 (centres unmarked) [IA7813, 4-[2-[6-[4-[3-[2-[2-[2-[2-[2-[2-[[2-(2,6-dioxo-3-piperidyl)-1,3-dioxo-isoindolin-4-yl]amino]ethoxy]ethoxy]ethoxy]ethoxy]ethoxy]ethoxy]propanoyl]piperazine-1-carbonyl]-2-naphthyl]ethylamino]quinoline-6-carbonitrile] | 28 |
